Biological target: T1, human Granzyme B (hGzmB) (Homo sapiens, UniProt P10144)
T1 construct: purchased Froelich Lab, Northshore University Health Systems Research Institute, Evanston, Ill., USA
Experiment: Human Granzyme B enzymatic inhibition assay (fluorogenic, kinetic)
Type: biochemical
Details: activity codes, Table 7; read-out: IC50 Activity Range
Description: A specific 2× assay buffer was prepared for the enzyme to be tested (see Table 2 for final 1× assay buffer compositions). If the assay buffer included DTT, it was added immediately prior to running the assay. A 2× enzyme mix was prepared (see Table 3 for enzyme assay conditions) at 80 uL per well. Compounds were screened at one or two appropriate concentrations (to determine the percent inhibition at those concentrations) and/or a full dose response curve (typically 8 points, to identify the IC50) in duplicate, triplicate, or higher replicates as needed. An appropriate control was also assessed in full dose response, in duplicate for each assay/plate. Background control wells consisted of 1× assay buffer, DMSO (5% v/v) and substrate. Positive control wells consisted of enzyme, DMSO (5% v/v) and substrate. Test compounds and control compounds were diluted in DMSO to […] the final desired concentration. For example, a test compound may be tested in dose response, in serial, tripling dilution condition starting at 20 uM and ending at 9.1 nM (or any appropriate concentration range and dilution scheme). Control compounds were prepared similarly. Diluted compounds were prepared in a dilution plate and transferred to the reaction plate (96-well medium binding plate (Greiner Bio-One FLUOTRAC™)) to allow for the desired final concentrations when added to the enzyme with AB. After mixing, the reaction plate was placed on a shaker (at 300 RPM) for 5 min, followed by incubation (covered) on the bench, for 20 min. Plates were warmed to reaction temperature (see Table 3) for a total incubation time of 30 min. Plates so prepared were ready for addition of substrate and the subsequent reaction.
(§1) An appropriate substrate for each assay was prepared in advance at 2× the final desired concentration (see Table 2) in DMSO. The appropriate substrate mix was added to each appropriate well on the reaction plate, and the plate was read immediately in the TECAN plate reader (TECAN INFINITE® M1000 Pro), set to the correct wavelength as needed for each assay (see Table 3) using 25 cycles, kinetic interval of 1 min, number of reads per well of 20 with shaking set to 1 s, double orbital, 2 mm amplitude. For fluorescent assays the gain was set to optimal (50%).
An in vitro fluorogenic detection assay for assessing the IC50 and/or percent inhibition at a given concentration of inhibitors against human Granzyme B (hGzmB) enzyme was performed as described in Example D1. When appropriate, percent inhibition data was collected and fitted to generate IC50 data using GraphPad Prism 5 (GraphPad Software, La Jolla Calif. USA, www.graphpad.com) and its non-linear regression analysis tools or other equivalent tools. […]
as §1, with “5)” for “2)”, “assay buffer. 30 uL of the” for “DMSO. The”, “6)” for “3)”, “15” for “25”, “(100% with gain regulation) for all assays except human GzmB which was set to 85 (with the z set at 23000 um).” for “(50%).”
An in vitro fluorogenic detection assay for assessing the IC50 and/or percent inhibition at a given concentration of inhibitors against human Granzyme B (hGzmB) enzyme was performed as described in Example D5. When appropriate, percent inhibition data was collected and fitted to generate IC50 data using GraphPad Prism 5 (GraphPad Software, La Jolla Calif. USA, www.graphpad.com) and its non-linear regression analysis tools or other equivalent tools.

T1 sequence (P10144 21-247): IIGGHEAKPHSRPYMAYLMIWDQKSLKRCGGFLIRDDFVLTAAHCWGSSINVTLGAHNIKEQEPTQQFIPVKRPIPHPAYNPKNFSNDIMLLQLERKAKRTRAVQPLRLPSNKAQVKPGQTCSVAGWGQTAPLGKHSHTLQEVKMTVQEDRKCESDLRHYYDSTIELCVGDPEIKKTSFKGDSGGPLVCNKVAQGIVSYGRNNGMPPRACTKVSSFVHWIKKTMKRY

`CCC[C@H](NC(=O)Cc1ccccc1)C(=O)NCC(=O)N1c2ccccc2C[C@H]1C(=O)NCc1nn[nH]n1` [Example C5, (2S)-1-{2-[(2S)-2-(2-Phenylacetamido)Pentanamido]Acetyl}-N-(2H-1,2,3,4-Tetrazol-5-Ylmethyl)-2,3-Dihydro-1H-Indole-2-Carboxamide] was tested, and the IC50 was 1 to 10 µM.

`CC(C)(C)[C@H](NC(=O)Cc1ccccc1)C(=O)NCC(=O)N1c2ccccc2C[C@H]1C(=O)NCc1nn[nH]n1` [Example C6, (2S)-1-{2-[(2S)-3,3-Dimethyl-2-(2-Phenylacetamido)Butanamido]Acetyl}-N-(2H-1,2,3,4-Tetrazol-5-Ylmethyl)-2,3-Dihydro-1H-Indole-2-Carboxamide] showed an IC50 of 1 to 10 µM.

In the case of `CO[C@H](C)[C@H](NC(=O)Cc1ccccc1)C(=O)NCC(=O)N1c2ccccc2C[C@H]1C(=O)NCc1nn[nH]n1` [Example C7, (2S)-1-{2-[(2S,3R)-3-Methoxy-2-(2-Phenylacetamido)Butanamido]Acetyl}-N-(2H-1,2,3,4-Tetrazol-5-Ylmethyl)-2,3-Dihydro-1H-Indole-2-Carboxamide], the IC50 is reported as 1 to 10 µM.

With `CC(C)(C)OC[C@H](NC(=O)Cc1ccccc1)C(=O)NCC(=O)N1c2ccccc2C[C@H]1C(=O)NCc1nn[nH]n1` [Example C8, (2S)-1-{2-[(2S)-3-(Tert-Butoxy)-2-(2-Phenylacetamido)Propanamido]Acetyl}-N-(2H-1,2,3,4-Tetrazol-5-Ylmethyl)-2,3-Dihydro-1H-Indole-2-Carboxamide] the IC50 was > 10 µM.

In the case of `C[C@@H](OC(C)(C)C)[C@H](NC(=O)Cc1ccccc1)C(=O)NCC(=O)N1c2ccccc2C[C@H]1C(=O)NCc1nn[nH]n1` [Example C9, (2S)-1-{2-[(2S,3R)-3-(Tert-Butoxy)-2-(2-Phenylacetamido)Butanamido]Acetyl}-N-(2H-1,2,3,4-Tetrazol-5-Ylmethyl)-2,3-Dihydro-1H-Indole-2-Carboxamide], the IC50 is reported as > 10 µM.

With `C[C@H](OC(C)(C)C)[C@H](NC(=O)Cc1ccccc1)C(=O)NCC(=O)N1c2ccccc2C[C@H]1C(=O)NCc1nn[nH]n1` [Example C10, (2S)-1-{2-[(2S,3S)-3-(Tert-Butoxy)-2-(2-Phenylacetamido)Butanamido]Acetyl}-N-(2H-1,2,3,4-Tetrazol-5-Ylmethyl)-2,3-Dihydro-1H-Indole-2-Carboxamide] the IC50 was > 10 µM.

For `CC[C@H](C)[C@H](NC(=O)Cc1ccccc1)C(=O)N[C@@H](CC(=O)O)C(=O)N1c2ccccc2C[C@H]1C(=O)NCc1nn[nH]n1` [Example C14], the IC50 was 1 to 10 µM.

Compound `CC[C@H](C)[C@H](NC(=O)Cc1ccccc1)C(=O)N[C@H](CC(=O)O)C(=O)N1c2ccccc2C[C@H]1C(=O)NCc1nn[nH]n1` [Example C15, (3R)-3-[(2S,3S)-3-Methyl-2-(2-Phenylacetamido)Pentanamido]-4-Oxo-4-[(2S)-2-[(2H-1,2,3,4-Tetrazol-5-Ylmethyl)Carbamoyl]-2,3-Dihydro-1H-Indol-1-Yl]Butanoic Acid] has an IC50 of 1 to 10 µM.

In the case of `CC[C@H](C)[C@H](NC(=O)Cc1ccccc1)C(=O)N[C@H](CCC(=O)O)C(=O)N1c2ccccc2C[C@H]1C(=O)NCc1nn[nH]n1` [Example C16, (4R)-4-[(2S,3S)-3-Methyl-2-(2-Phenylacetamido)Pentanamido]-5-Oxo-5-[(2S)-2-[(2H-1,2,3,4-Tetrazol-5-Ylmethyl)Carbamoyl]-2,3-Dihydro-1H-Indol-1-Yl]Pentanoic Acid], the IC50 is reported as 0.1 to 1 µM.

In the case of `CC[C@H](C)[C@H](NC(=O)Cc1ccccc1)C(=O)N[C@@H](CCCC(=O)O)C(=O)N1c2ccccc2C[C@H]1C(=O)NCc1nn[nH]n1` [Example C17, (5S)-5-[(2S,3S)-3-Methyl-2-(2-Phenylacetamido)Pentanamido]-6-Oxo-6-[(2S)-2-[(2H-1,2,3,4-Tetrazol-5-Ylmethyl)Carbamoyl]-2,3-Dihydro-1H-Indol-1-Yl]Hexanoic Acid], the IC50 is reported as 1 to 10 µM.

In the case of `CC[C@H](C)[C@H](NC(=O)Cc1ccccc1)C(=O)N[C@@H](CCCCN)C(=O)N1c2ccccc2C[C@H]1C(=O)NCc1nn[nH]n1` [Example C18, (2S)-1-[(2S)-6-Amino-2-[(2S,3S)-3-Methyl-2-(2-Phenylacetamido)Pentanamido]Hexanoyl]-N-(2H-1,2,3,4-Tetrazol-5-Ylmethyl)-2,3-Dihydro-1H-Indole-2-Carboxamide], the IC50 is reported as > 10 µM.

`CC[C@H](C)[C@H](NC(=O)Cc1ccccc1)C(=O)NCC(=O)N1c2cc(NC(=O)OC(C)(C)C)ccc2C[C@H]1C(=O)NCc1nn[nH]n1` [Example C19, Tert-Butyl N-[(2S)-1-{2-[(2S,3S)-3-Methyl-2-(2-Phenylacetamido)Pentanamido]Acetyl}-2-[(2H-1,2,3,4-Tetrazol-5-Ylmethyl)Carbamoyl]-2,3-Dihydro-1H-Indol-6-Yl]Carbamate] was tested, and the IC50 was 0.1 to 1 µM.

For `CC[C@H](C)[C@H](NC(=O)Cc1ccccc1)C(=O)NCC(=O)N1c2cc(NCc3ccccc3)ccc2C[C@H]1C(=O)NCc1nn[nH]n1` [Example C21, (2S)-6-(Benzylamino)-1-{2-[(2S,3S)-3-Methyl-2-(2-Phenylacetamido)Pentanamido]Acetyl}-N-(2H-1,2,3,4-Tetrazol-5-Ylmethyl)-2,3-Dihydro-1H-Indole-2-Carboxamide], the IC50 was > 10 µM.

Compound `O=C(O)CCC(=O)N[C@H](C(=O)NCC(=O)N1c2ccccc2C[C@H]1C(=O)NCc1nn[nH]n1)c1ccsc1` [Example C23, 3-{[(S)-({2-Oxo-2-[(2S)-2-[(2H-1,2,3,4-Tetrazol-5-Ylmethyl)Carbamoyl]-2,3-Dihydro-1H-Indol-1-Yl]Ethyl}Carbamoyl)(Thiophen-3-Yl)Methyl]Carbamoyl}Propanoic Acid] has an IC50 of 1 to 10 µM.

`O=C(O)CCC(=O)N1CCCC[C@H]1C(=O)NCC(=O)N1c2ccccc2C[C@H]1C(=O)NCc1nn[nH]n1` [Example C25, 4-Oxo-4-[(2S)-2-({2-Oxo-2-[(2S)-2-[(2H-1,2,3,4-Tetrazol-5-Ylmethyl)Carbamoyl]-2,3-Dihydro-1H-Indol-1-Yl]Ethyl}Carbamoyl)Piperidin-1-Yl]Butanoic Acid] was tested, and the IC50 was 1 to 10 µM.

With `CC[C@H](C)[C@H](Nc1ncccn1)C(=O)NCC(=O)N1c2ccccc2C[C@H]1C(=O)NCc1nn[nH]n1` [Example C26, (2S)-1-{2-[(2S,3S)-3-Methyl-2-[(Pyrimidin-2-Yl)Amino]Pentanamido]Acetyl}-N-(2H-1,2,3,4-Tetrazol-5-Ylmethyl)-2,3-Dihydro-1H-Indole-2-Carboxamide] the IC50 was > 10 µM.

`O=C(O)CCC(=O)N1CCC[C@H]1C(=O)NCC(=O)N1c2ccccc2C[C@H]1C(=O)NCc1nn[nH]n1` [Example C28, 4-Oxo-4-[(2S)-2-({2-Oxo-2-[(2S)-2-[(2H-1,2,3,4-Tetrazol-5-Ylmethyl)Carbamoyl]-2,3-Dihydro-1H-Indol-1-Yl]Ethyl}Carbamoyl)Pyrrolidin-1-Yl]Butanoic Acid] was tested, and the IC50 was > 10 µM.

With `O=C(O)CCC(=O)NC1(C(=O)NCC(=O)N2c3ccccc3C[C@H]2C(=O)NCc2nn[nH]n2)CCCC1` [Example C29, 3-{[1-({2-Oxo-2-[(2S)-2-[(2H-1,2,3,4-Tetrazol-5-Ylmethyl)Carbamoyl]-2,3-Dihydro-1H-Indol-1-Yl]Ethyl}Carbamoyl)Cyclopentyl]Carbamoyl}Propanoic Acid] the IC50 was > 10 µM.

With `CC[C@H](C)[C@H](NC(=O)Cc1ccccc1)C(=O)NCC(=O)N1c2c(cccc2NC(C)=O)C[C@H]1C(=O)NCc1nn[nH]n1` [Example C30, (2S)-7-Acetamido-1-{2-[(2S,3S)-3-Methyl-2-(2-Phenylacetamido)Pentanamido]Acetyl}-N-(2H-1,2,3,4-Tetrazol-5-Ylmethyl)-2,3-Dihydro-1H-Indole-2-Carboxamide] the IC50 was > 10 µM.

Reference: patent US10329324B2 (viDA Therapeutics Inc., priority 2013, dated 2019)
